According to US7501454B2, “Cyclohexenone compounds from Antrodia camphorata to treat autoimmune diseases” (Golden Biotechnology Corporation, priority 2007, dated 2009):

Key:
female NZB/WF1 SLE mice [1] = assay: Changes of proteinuria in female NZB/WF1 SLE mice (Bio-Rad protein assay of urine); type: in vivo; conditions: for proteinuria level: negative control 246 mg/dl
Experimental: (§1) Female NZB/WF1 mice spontaneously develop human SLE-like syndromes, such as generation of antinuclear autoantibodies, proteinuria, and renal toxicity to cause death. The disease is more severe in female mice than in male mice; the morbidity of female mice is also higher than that of male mice. Therefore, female NZB/WF1 mice were used for screening anti-SLE drugs in this study.
(§2) Thirty female NZB/WF1 mice (purchased from Jackson Lab, USA) between 12-24 weeks of age were analyzed biweekly to determine proteinuria levels, monthly to assess the titers of antinuclear autoantibody (ANA). The increased titers of ANA and positive response implicated that female NZB/WF1 mice were going to develop SLE and were ready for grouping. At 22 weeks of age, the animals showing the abovementioned syndromes were randomly divided into 3 groups (10 mice per group, water was administered to negative control group, steroid was given to positive control group, and cyclohexenone compounds of Antrodia camphorata was administered to experiment group), and the start time for the experiment was set as week zero. In addition, ten B6 mice (purchased from National Laboratory Animal Center, Taiwan) without SLE syndrome were normal mice served as blank group.
The blank group in Table 1 was B6 mice of no SLE syndrome, which received no treatment and normal diet for natural growth. NZB/WF1 female mice that were able to express SLE syndromes were served in negative control and positive control groups. Mice in the former group received normal water; in the latter were orally medicated with 1.25 mg/kg of prednisolone, the SLE drug. Mice in the experiment group were orally medicated with 50 mg/kg of cyclohexenone compounds from Example 1. […]
SLE patients develop renal inflammation and damage, which cause leakage of protein from kidney into the fluid. […] Ten μl of urine was assayed with Bio-Rad Protein Assay Dye Reagent Concentrate (Bio-Rad Laboratories, USA) and read under […] with an ELISA analyzer to determine the protein concentration with a standard curve.

female NZB/WF1 SLE mice [2] = assay: Titers of anti-dsDNA antinuclear antibodies in plasma of female NZB/WF1 SLE mice (Mouse Anti-dsDNA IgG ELISA kit); type: in vivo
Experimental: as §1, §2
The blank group in Table 1 was B6 mice of no SLE syndrome, which received no treatment and normal diet for natural growth. NZB/WF1 female mice that were able to express SLE syndromes were served in negative control and positive control groups. Mice in the former group received normal water; in the latter were orally medicated with 1.25 mg/kg of prednisolone, the SLE drug. Mice in the experiment group were orally medicated with 50 mg/kg of cyclohexenone compounds from Example 1. The mice were fed with the abovementioned substances once per day starting at 23 weeks of age, and this period of time was referred to as the first week of this experiment. […]
The titers of dsDNA antinuclear antibodies were determined in this study to assess the effects of cyclohexenone compounds from Antrodia camphorata on SLE mice. […]

Compound	proteinuria level (female NZB/WF1 SLE mice [1]; experiment group, 50 mg/kg oral once per day, after 6 weeks of experiment) [mg/dL]	fold increase of proteinuria level versus before experiment (female NZB/WF1 SLE mice [1]; experiment group, 50 mg/kg oral once per day, after 6 weeks, negative control 2.76-fold) [fold]	titers of anti-dsDNA antinuclear antibodies compared with negative group (female NZB/WF1 SLE mice [2]; experiment group, 50 mg/kg oral once per day, during 8 weeks of experiment)	titer of antinuclear antibodies decreased to (female NZB/WF1 SLE mice [2]; experiment group, 50 mg/kg oral once per day, week 8) [%]	proteinuria level (female NZB/WF1 SLE mice [1]; positive control group, prednisolone 1.25 mg/kg oral once per day, after 6 weeks) [mg/dL]	titer of anti-dsDNA antinuclear antibodies decreased to (female NZB/WF1 SLE mice [2]; positive group, prednisolone 1.25 mg/kg oral once per day, week 8)
COC1=C(OC)C(O)C(C/C=C(\C)CC/C=C(\C)CCC=C(C)C)C(C)C1=O (stereo not drawn) [4-hydroxy-2,3-dimethoxy-6-methyl-5(3,7,11-trimethyl-dodeca-2,6,10-trienyl)-cyclohex-2-enone]	118.2	1.3	significantly lower titers of anti-dsDNA antinuclear antibodies than those in the negative group	34	–	–
C[C@]12C=CC(=O)C=C1CC[C@@H]1[C@@H]2[C@@H](O)C[C@@]2(C)[C@H]1CC[C@]2(O)C(=O)CO [prednisolone, reference compound]	–	–	–	–	32.6	around 50%
